Substitutions are numbered along the chain they refer to.
Assays:
Type in all cases: binding
Details in all cases: 15 °C
MARK3(48-370) Mutant 2 = target: T1, MARK3(48-370) Mutant 2 (Homo sapiens, UniProt P27448, E139D/I62L/L128I/L130I/T204H/V116I/V205Q); test: SPR Extract2Chip, cellular biotinylated MARK3 Mutant 2, GSK461364A injected
T1 construct: made in house; host or cells: E. coli Rosetta 2, co-expressed with BirA; soluble lysate used without purification
T1 sequence (P27448 48-370 I62L/V116I/L128I/L130I/E139D/T204H/V205Q): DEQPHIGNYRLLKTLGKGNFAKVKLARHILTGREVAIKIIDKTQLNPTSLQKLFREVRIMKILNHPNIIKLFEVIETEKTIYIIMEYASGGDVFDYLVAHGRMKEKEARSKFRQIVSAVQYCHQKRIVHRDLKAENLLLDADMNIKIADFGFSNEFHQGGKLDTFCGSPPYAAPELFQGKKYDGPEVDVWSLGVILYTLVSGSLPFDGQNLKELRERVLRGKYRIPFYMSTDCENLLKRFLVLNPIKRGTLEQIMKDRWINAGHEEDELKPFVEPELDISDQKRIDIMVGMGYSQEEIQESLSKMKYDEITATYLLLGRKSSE
Description: (§1) The cellular biotinylation of MARK3(48-370) kinase domain mutants followed the same approach as described for CypD. The 6 different mutants were expressed in Rosetta^TM 2 in PB media, and induced with 100 µM IPTG overnight at 18 °C.
(§2) The cellular biotinylated MARK3 NUAK2-like mutants were immobilized using the approach described in Section 2.5.2. The soluble cell lysates were diluted to a final concentration of 200 µg/mL, then injected over the neutravidin surfaces for 200 or 1400 s in order to reach 1000 to 2300 RU.
(§3) The interaction analysis cycles consisted of 140 s of sample injection followed by 350 to 600 s of running buffer flow. The running buffer was composed of 20 mM HEPES pH 7.4, 100 mM NaCl, 5 mM MgCl2, 1 mM EGTA, 1 mM DTT, 0.05% Tween-20, and 2% DMSO, and the experiment was performed at 15 °C.
(§4) All sensorgrams were processed by first subtracting the binding response recorded from the control surface (reference spot, where only the avidin protein is immobilized), followed by subtraction of the buffer blank injection from the reaction spot. All datasets were fitted to a simple 1:1 Langmuir interaction model to determine the kinetic rate constants, and the interaction affinity was additionally calculated at a steady state when applicable. […]

MARK3(48-370) Mutant 3 = target: T2, MARK3(48-370) Mutant 3 (Homo sapiens, UniProt P27448, A68G/E139D/F67Y/I62L/L128I/L130I/N66T/T204H/V116I/V205Q); test: SPR Extract2Chip, cellular biotinylated MARK3 Mutant 3, GSK461364A injected
T2 construct: made in house; host or cells: E. coli Rosetta 2, co-expressed with BirA; soluble lysate used without purification
T2 sequence (P27448 48-370 I62L/N66T/F67Y/A68G/V116I/L128I/L130I/E139D/T204H/V205Q): T1 sequence (P27448 48-370 I62L/V116I/L128I/L130I/E139D/T204H/V205Q) with N19T, F20Y, A21G
Description: as §1, §2, §3, §4

MARK3(48-370) Mutant 6 = target: T3, MARK3(48-370) Mutant 6 (Homo sapiens, UniProt P27448, A68G/E139D/F199L/F67Y/G137R/I62L/L128I/L130I/L72K/N66T/T204H/V116I/V205Q); test: SPR Extract2Chip, cellular biotinylated MARK3 Mutant 6, GSK461364A injected
T3 construct: made in house; host or cells: E. coli Rosetta 2, co-expressed with BirA; soluble lysate used without purification
T3 sequence (P27448 48-370 I62L/N66T/F67Y/A68G/L72K/V116I/L128I/L130I/G137R/E139D/F199L/T204H/V205Q): T1 sequence (P27448 48-370 I62L/V116I/L128I/L130I/E139D/T204H/V205Q) with N19T, F20Y, A21G, L25K, G90R, F152L
Description: as §1, §2, §3, §4

kd ± SD (MARK3(48-370) Mutant 2): 0.081 ± 0.015 s⁻¹
kd ± SD (MARK3(48-370) Mutant 3): 0.028 ± 0.003 s⁻¹
kd ± SD (MARK3(48-370) Mutant 6): 0.021 ± 0.0012 s⁻¹
SMILES: C[C@@H](Oc1cc(-n2cnc3ccc(CN4CCN(C)CC4)cc32)sc1C(N)=O)c1ccccc1C(F)(F)F [GSK461364A]

From paper PMC10605449 (Biosensors, 2023)
